Each structure is given as a SMILES string. Like-named read-outs stand apart in the source and are kept apart here.

Data on four molecules can be found in patent publication EP4813970A1, “L-SERINE HAVING REDUCED HEAVY METAL AMOUNT, PHARMACEUTICAL COMPOSITION THEREOF, PREPARATION METHOD THEREFOR, AND USE THEREOF” (priority 2023, dated 2025).

In one data set the test system is HT22 cells. Put plainly: Mitochondrial membrane potential by JC-1 staining after DMNQ damage. Type of data set: cell-based. How it is done:
HT22 cells were cultured under 37°C and 5% CO2 conditions using DMEM medium containing 10% FBS, 100 unit/mL penicillin, and 100 µg/mL streptomycin. […] After checking the condition of the cells, 5 µM JC-1 was added to the medium and the cells were stained for 30 minutes under 37°C and 5% CO2 conditions, treated with 0.25% trypsin-EDTA and the cells were collected in an e-tube, washed twice with PBS, and analyzed with Attune NxT. The effect of L-serine, which contains class 1 heavy metals, on mitochondria, which affects both neurological diseases and metabolic diseases, was confirmed depending on the concentration of class 1 heavy metals. DMNQ causes oxidative stress and excessive production of ROS, which induces mitochondrial membrane potential depolarization, thereby resulting in mitochondrial dysfunction and apoptosis. In mitochondria, an electrochemical proton gradient is created through the mitochondrial membrane, which produces ATP, and when mitochondria are damaged and apoptosis occurs, mitochondrial permeability pores are opened and thus mitochondrial transmembrane potential decreases (membrane potential depolarization). Mitochondrial membrane potential difference, which is an indicator of apoptosis, was measured through JC-1 staining. JC-1 enters the mitochondria in normal cells due to changes in mitochondrial membrane potential and forms a multicomplex, thereby giving it a red color, whereas when apoptosis occurs due to depolarization of the mitochondrial membrane potential, JC-1 remains in the cytoplasm and gives it a green color. Four hours before DMNQ treatment, neurons were treated with unpurified L-serine, primary purified L-serine, and secondary purified L-serine, and then treating with DMNQ for 2 hours and 30 minutes, the degree of protection of neurons was measured by measuring the mitochondrial membrane potential difference through JC-1 staining.

The subject of a further data set is primary neurons. Put plainly: Multi-electrode array (MEA) of neuronal electrical activity under DMNQ neurotoxicity. Type of data set: cell-based, mouse. Conditions: FIG. 3. How it is done: After adding an equal volume of culture medium, cells were separated by a mechanical method using a pipet, and single cells were separated using a 40 µm cell strainer. After centrifugation at 2,000 rpm for 5 minutes, the supernatant was removed and resuspended in culture medium. […] A 50% PEI solution, which was prepared by mixing borate buffer and PEI in a 1:1 ratio, was diluted with a 0.1% PEI solution using borate buffer and then filtered using a 0.22 µm filter. […] Laminin stock stored at -20°C was thawed at 4°C and then diluted in serum-free medium (20 ng/mL). 40 µL of 0.1% PEI was added to each well of a 24-well MEA plate, and then the 24-well MEA plate was placed in a cell incubator at 37°C and 5% CO2 for 60 minutes. After washing the 24-well MEA plate three times with sterile DW, the laminin solution was added 50 µL per well and placed overnight in a cell incubator at 37°C and 5% CO2. After removing the laminin solution from the 24-well MEA plate, the prepared primary neurons were seeded at a concentration of 1.0 × 10^5 cells/well. […] Neuronal electrical activity was measured using the Maestro Edge system every 30 minutes for 15 minutes, and the same amount of secondary purified L-serine was pretreated for 4 hours based on 0.1 mM unpurified L-serine. After drug pretreatment for 4 hours, neuronal electrical activity was measured 4 times at 30 minute intervals during 2-hour treatment with 20 µM DMNQ, and the data was analyzed using a neural metric tool and an axis metric plotting tool. […] For the MEA, neurons were cultured on electrodes for several weeks to form a network and then the electrical signals, that is action potentials, generated from the neurons were measured. […] The primary neuronal culture was cultured in 24-well MEA plates for approximately 15 days, and when electrical signals were passed through sporadic bursts and activated into synchronous network bursts, test substances were treated at concentrations not affecting cell viability, and action potentials were measured and compared.

In data set [1] the test system is patients with autism spectrum disorder. Description: Phase 2 clinical trial of L-serine in children under 11 years of age. Conditions: 400 mg/kg for 24 weeks.
The test system of data set [2] is patients with hereditary sensory and autonomic neuropathy type 1 (HSAN1). Conditions: cited from earlier work.
The subject of data set [3] is patients with amyotrophic lateral sclerosis (ALS). Conditions: cited from earlier work.
The test system of data set [4] is fetuses with 3-PGDH deficiency. Conditions: cited from earlier work.
In data set [5] the test system is 5XFAD (Tg6799; five familial mutation). Put plainly: Survival on 9-month administration in an Alzheimer's disease animal model. Conditions: 500 mg/kg orally 5 days a week for 9 months, 3 to 12 months of age. Type of data set: in vivo, mice. Here is the method: In order to measure the extent to which the class 1 heavy metal content in L-serine affects neurons when taken over a long period of time, long-term administration of L-serine for 9 months from the early stage of the disease (3 months of age) to 12 months of age was conducted using 5XFAD (Tg6799; five familial mutation), which is an animal model of Alzheimer's disease, and the effect of the drug on animal viability was confirmed. Specifically, WT & 5XFAD mice (purchased from The Jackson Lab) administered with saline and WT & 5XFAD mice administered with L-serine were composed of 12 mice per group. Saline and 500 mg/kg of unpurified L-serine and secondary purified L-serine were orally administered 5 days a week for 9 months, and after administration, the survival rate (%) was measured through daily observation of mice and designated as survival rate.

Where [6] appears, read: oral twice a day, maximum dose of 15 g/day for 6 months.
The mark [7] stands for this setting: 4 hours pretreatment (based on 0.1 mM unpurified L-serine), then 2-hour 20 µM DMNQ.

For the molecule `COC1=C(OC)C(=O)c2ccccc2C1=O` [DMNQ], the “mitochondrial damage (green)” value with HT22 cells (20 µM DMNQ alone) was 81.4±4.2%. Moreover, the “active electrodes (spikes and network bursts)” value (“active electrodes” for short) in the data set with primary neurons (20 µM DMNQ alone, compared to the control group) is on record as “significantly reduced”.

Turning to `N[C@@H](CO)C(=O)O` [L-serine], the “mitochondrial damage (green)” value was 32.1±1.52% in the data set on HT22 cells (0.5 mM, pre-treated 4 hours, then 20 µM DMNQ); 18.7±11.1% in the data set with HT22 cells (1 mM, pre-treated 4 hours, then 20 µM DMNQ); 1.5±0.23% in the data set with HT22 cells (2.5 mM, pre-treated 4 hours, then 20 µM DMNQ). Besides, the side effects result in data set [1] was “without any unusual side effects”. Moreover, in data set [1], the treatment efficiency result is on record as “about 40%”. In data set [2] (400 mg/kg/day for up to 2 years), the “safety and Charcot-Marie-Tooth Neuropathy Score (CMTNS)” value was “effects of improving safety and Charcot-Marie-Tooth Neuropathy Score (CMTNS) were confirmed”. Moreover, in data set [2] (oral, up to 400 mg/kg/day for 10 and 52 weeks), the “1-deoxySL (dSL)” value was “reduced”. Moreover, the “progression of the patients' disease” value in data set [3] (setting [6]) is listed as “showed the effect of delaying the progression of the patients' disease”. Further, the safety entry in data set [3] (setting [6]) was “safe”; in data set [3] (phase 2 clinical trials, up to 15 g twice a day for 6 months) it was “shown to be safe”. Also, the “brain growth in fetuses” value in data set [4] (maternal supply of L-serine during pregnancy) was “shown to improve brain growth”. In data set [4] (postnatal children (birth to 4 years old)), the neurological symptoms result was “shown to prevent neurological symptoms”. Further, the adverse reactions result in data set [4] (pregnant women, fetuses, and newborns) is reported as “no adverse reactions were observed”.

Turning to `N[C@@H](CO)C(=O)O` [secondary purified L-serine, L-serine], the survival rate in data set [5] is 80%. Also, the “active electrodes” value in the data set on primary neurons (setting [7]) is “active electrodes in a state without DMNQ treatment were maintained”.

`N[C@@H](CO)C(=O)O` [unpurified L-serine, L-serine] had a survival rate in data set [5] of 58%. In the data set with primary neurons (setting [7]), the “active electrodes” value is reported as “the effect was not distinct”.
